Patent US20240269278A1, “ANTI-CD47 ANTIBODY FOR COMBINED TREATMENT OF BLOOD TUMOR” (Nanjing Shunxin Pharmaceuticals Co., Ltd. of Chiatai …, priority 2021, published 2024)

Assays:
[1] = tested on: human acute myeloblastic leukemia MOLM-16; experiment: Subcutaneous mouse xenograft tumor of MOLM-16; format: in vivo
Experimental: The experimental animals were NOD-SCID mice (5-6 weeks old, female) purchased from Beijing Huafukang Biotechnology Co., Ltd., with the production license number of SCXK (Jing) 2019-0008 and the animal certification number of 110322211100910838. The housing environment was in a SPF grade. Human acute myelocytic leukemia MOLM-16 cells were purchased from DSMZ. MOLM-16 cells were cultured in an incubator at 37° C. with 5% CO2 in air. Subculturing was performed twice a week, and when the cells were in a logarithmic growth phase, the cells were collected, counted, and inoculated. 1×10^7 MOLM-16 cells were inoculated to each mouse subcutaneously, and when tumors reached the volume of 100-150 mm^3, the mice were divided into groups and injected with drugs intravenously (IV) at the administration volume of 0.1 mL/10 g of body weight.
(§1) The experimental index was to investigate the effects of the drugs on the tumor growth, and the specific index was T/C % or the tumor growth inhibition rate (TGI %, tumor growth inhibition).
(§2) Tumor diameters were measured twice a week with a vernier caliper and tumor volume (V) was calculated according to the following formula: […]
(§3) where a and b represent length and width, respectively.
(§4) T/C (%)=(T−T0)/(C−C0)×100,
(§5) where T and C are the tumor volumes of animals at the end of the experiment in the test group and the negative control group, respectively; T0 and C0 are the tumor volumes of animals at the beginning of the experiment in the test group and the negative control group, respectively.
(§6) If the volume of tumor shrinks compared with its initial volume, i.e., T<T0 […], it is defined as partial regression (PR) of tumor; if the tumor completely disappears, it is defined as complete regression (CR) of tumor.
At the end of the experiment, the animals were sacrificed by CO2 anesthesia and dissected to give the tumors. The tumors were photographed.

HL60 cells = experiment: Promotion of macrophage phagocytosis of tumor cells (flow cytometry); format: cell-based; details: CFSE-labeled HL60 cells, human macrophages
Experimental: The ability of the anti-CD47 antibodies to promote the phagocytosis of tumor cells by macrophages having SIRPα on the cell surface was determined based on flow cytometry.
Monocytes were isolated from human peripheral blood mononuclear cells (PBMC, Sailybio, Cat. No. 190056) using a monocyte isolation kit ([…], Cat. No. 19058), plated into a 24-well plate (Greiner bio-one, Cat. No. 662-160) at […] cells per well, and induced under 100 ng/mL stimulating factor M-CSF (R&D Systems, Cat. No. 216-MC-010) for 7 days to form macrophages. 1×10^6 target cells HL60 (Shanghai Institute of Biochemistry and Cell Biology, Chinese Academy of Sciences, Cat. No. TCHu23) were suspended in […] CFSE (BD Biosciences, Cat. No. 565082) fluorescent dye (diluted with a PBS buffer to the desired concentration), incubated in a water bath at 37° C. in the dark for 15 min, and washed with a PBS buffer to prepare CFSE-labeled HL60 cells, which were then incubated with each of 10 μg/mL and 1 μg/mL anti-CD47 antibodies (see Table 3 for chimenic antibodies, and see Table 4 for humanized antibodies) in an incubator at 37° C. with 5% CO2 for 1-2 h. The HL60 cells after the incubation were washed three times with a PBS buffer and added to the macrophages. […] The rate of phagocytosis (%) by the macrophages was determined using a flow cytometer (BD Biosciences, model: C6).

Raji cells = experiment: Hematologic tumor mouse model of lymphoma Raji cells, survival; format: in vivo, NOD/SCID mice; details: 10 mg/kg intraperitoneal, 21 consecutive days
Experimental: A hematologic tumor mouse model was established using hematologic tumor Raji cells. The anti-CD47 antibodies were applied to the model for the evaluation of the pharmacodynamic activity.
A suspension of Raji cells in a PBS buffer was prepared at a concentration of 5×10^6 cells/mL, and was injected into female NOD/SCID mice via the tail vein at 0.1 mL/mouse. […] The administration was performed by intraperitoneal injection in doses of 10 mg/kg for 21 consecutive days. The survival time of the animals was observed.

[2] = tested on: human B-cell lymphoma Daudi; experiment: Subcutaneous mouse xenograft tumor of Daudi; format: in vivo, NOD-SCID mice; details: IV D0, 3, hz14A9-2.3 1.5 mg/kg, Rituximab 3 mg/kg
Experimental: The experimental animals were NOD-SCID mice (5-6 weeks old, male) purchased from Shanghai Lingchang Biotechnology Co., Ltd., with the production license number of SCXK (Hu) 2018-0003 and the animal certification number of 20180003014870. The housing environment was in a SPF grade. Human B-cell lymphoma Daudi cells were purchased from Cell Bank of the Chinese Academy of Sciences. Daudi cells were cultured in an incubator at 37° C. with 5% CO2 in air. Subculturing was performed twice a week, and when the cells were in a logarithmic growth phase, the cells were collected, counted, and inoculated. 1×10^7 Daudi cells were inoculated to each mouse subcutaneously, and when tumors reached the volume of about 100 mm^3, the mice were divided into groups and injected with drugs intravenously (IV) once every 3 days (Q3D) for a total of 2 times at the injection volume of 0.1 mL/10 g of body weight.
as §1, §2, §3, §4, §5, §6
At the end of the experiment (D24), the animals were sacrificed by CO2 anesthesia and dissected to give the tumors. The tumors were photographed.

[3] = Azacitadine 2.5 mg/kg IV QD × 5

Compound: Nc1ncn([C@@H]2O[C@H](CO)[C@@H](O)[C@H]2O)c(=O)n1 [Azacitadine, 4-amino-1-β-D-ribofuranosyl-1,3,5-triazin-2(1H)-one]
- T/C(%) D12 ([1]; Azacitadine 1 mg/kg IV QD × 5): 50%
- Tumor growth inhibition (%) D12 ([1]; Azacitadine 1 mg/kg IV QD × 5): 50%
- T/C(%) D12 [1, 3]: 18%
- Tumor growth inhibition (%) D12 [1, 3]: 82%
- mean tumor volume D17 ([1]; azacitadine 1 mg/kg IV QD×5 monotherapy): 3729.5 ± 436.4 mm^3
- mean tumor volume D17 ([1]; azacitadine 2.5 mg/kg IV QD×5 monotherapy): 1920.7 ± 375.6 mm^3

Compound: Hu5F9: the positive antibody Hu5F9, comparison anti-CD47 antibody [reference compound]
- rate of phagocytosis (HL60 cells; 1 μg/mL antibody): 67.5%
- rate of phagocytosis (HL60 cells; 10 μg/mL antibody): 72.35%
- day on which all the animals in the group died (Raji cells): 30 days
- median survival time (Raji cells): 18.5 days

Compound: Rituximab: anti-CD20 monoclonal antibody [reference compound]
- T/C(%) D24 [2]: 64%
- Tumor growth inhibition (%) D24 [2]: 36%
- Partial regression (number of tumors) ([2]; hIgG4 4.5 mg/kg, 6 mice per group (hIgG4 10)): 0
